# Entries after “also recorded” stand apart in the source; their conditions may differ.
# How the values were obtained:
# Ts65Dn mice = settings: increasing brain NE levels; cited from earlier work
# subjects = test: Visual verbal learning test (VVLT); assay type: in vivo, human; settings: crossover study; for effect on the VVLT (learning and memory): 3 agents plus placebo
# Method: The visual verbal learning test (VVLT) is a test for learning and memory (de Haas 2009). Subjects are presented 30 words on a screen, one at a time, for 1 second with a 1-second interval between words over a total of 1 minute. This is repeated in 3 trials. After each trial, subjects are asked to recall as many words as they can. After the third trial, there is a delay of 2.5 hours and subjects are then tested once for delayed recall. […] Since this was a crossover study, everyone who completed Part A was dosed with the 3 agents plus placebo.
# patients = test: Cerebral blood flow relative to baseline after a single dose (Example 1); assay type: in vivo, human
# healthy subjects [1] = test: ASL MRI cerebral perfusion before and after a single dose (Example 3); assay type: in vivo, human
# Method: In a clinical study, healthy subjects were administered doses of clenbuterol ranging from 20 to 160 μg and ASL MRI was conducted prior to and after dosing with an objective to ascertain whether this neuroimaging method enables the detection of a clinically relevant CNS signal.
# In a region of interest (ROI) analysis focusing on the hippocampus, which is well understood to be affected in neurodegenerative disorders, a single dose of 80 μg of clenbuterol causes a robust increase in perfusion (see FIG. 7). […] Taken together with other cohorts in which ASL MRI was conducted, a clear dose response relationship is seen between dose of clenbuterol and cerebral perfusion (FIG. 8). […] Our hypothesis is that by improving cerebral perfusion, particularly in areas of the brain that are relevant for symptoms that are commonly found in neurodegenerative diseases such as PD and AD, the administration of a β2-AR agonist will have a positive effect on clinically relevant symptoms such as memory and cognition.
# healthy subjects [2] = test: Adaptive tracking test (visuomotor coordination and vigilance); assay type: in vivo, human; settings: single dose of 160 μg clenbuterol
# Source text: Adaptive tracking measures visuomotor coordination and vigilance. In this test, the subject uses a joystick to move a small dot so that it stays within a continuously moving circle on a computer screen (Boland 1984). During the test, the speed of the circle is adjusted in response to the subject's ability to keep the dot in the circle, ensuring that the test is adapted to the individual subject. […] The improvement shown by subjects is in the same range as that seen with subjects treated with the acetylcholinesterase inhibitor donepezil, which is in clinical use for the treatment of mild to moderate AD (Groeneveld 2016).
compound,measurement,setting,value
"N[C@H](C(=O)O)[C@H](O)c1ccc(O)c(O)c1 [L-DOPS, L-threo-3,4-dihydroxyphenylserine]",contextual learning,Ts65Dn mice,restored contextual learning
CC(C)NCC(O)COc1cccc2[nH]ccc12 (stereo not shown) [pindolol],effect on the VVLT (learning and memory),subjects,detrimental effect
CC(C)(C)NCC(O)c1cc(Cl)c(N)c(Cl)c1 (stereo not shown) [clenbuterol],cerebral blood flow (CBF) relative to the baseline,patients; single dose of clenbuterol 160 μg,robust global increase; also recorded: positive increase
same,cerebral blood flow (CBF) relative to the baseline,"patients; single dose of clenbuterol ranging from 30 to 160 μg, tracked over 3 days",robust global increase
same,cerebral perfusion increase as measured by CBF,healthy subjects [1]; clenbuterol dose of 40 μg,minimal increase
same,cerebral perfusion increase as measured by CBF,healthy subjects [1]; clenbuterol doses below 30 μg,do not produce significant cerebral perfusion increases
same,improvements in perfusion in brain areas relevant to neurodegenerative disorders,healthy subjects [1]; doses of 80 and 160 μg clenbuterol,~25%
same,global perfusion,"healthy subjects [1]; doses of 80 and 160 μg clenbuterol, ASL MRI","robust, global increase"
same,"increase in hippocampal perfusion, on average","healthy subjects [1]; single dose of 80 μg clenbuterol, 6 healthy subjects aged 44 to 52, ROI hippocampus",25%
same,"cerebral perfusion (global; hippocampus, thalamus, cortex)","healthy subjects [1]; single dose of 160 μg clenbuterol, ASL MRI",robust global increase
same,performance in adaptive tracking (percent time dot kept within moving circle),healthy subjects [2],improved
same,cognition as measured by adaptive tracking and word recall,"healthy subjects [2]; healthy subjects, preliminary data",improves cognition
same,"VVLT performance, immediate recall (Trial 1)",subjects,improved performance
same,effect on the VVLT (learning and memory),subjects,positive effects
same,"VVLT performance, delayed recall",subjects; recall after delay of 2.5 hours,improved performance
CC(C)(C)NCC(O)c1ccc(O)c(CO)c1 (stereo not shown) [salbutamol],effect on the VVLT (learning and memory),subjects,positive effects
